PMC12865225 (Clinical and Translational Science, 2026)

Assays:
OAT2 = system: T1, OAT2; experiment: OAT2 inhibition, methotrexate uptake into HEK293 cells; format: cell-based, human; details: 200 μM inhibitor, 34 nM methotrexate
T1 construct: expressed in transfected cells; host or cells: HEK293 (recombinant baculovirus-mediated transduction)
Procedure: The human transporters OATP1B1, OATP1B3, OATP2B1, and OAT1‐OAT4 and a negative control protein (enhanced yellow fluorescent protein, eYFP) were transiently expressed in human embryonic kidney 293 (HEK293) cells by recombinant baculovirus‐mediated transduction. Baculoviruses carrying human genes for the transporters were prepared as reported previously. HEK293 cells were cultured in DMEM containing 10% fetal bovine serum at 37°C and 5% CO2 and passaged two to three times per week. For the transport studies, 0.05 × 10^6 cells for 48‐well plates (OATPs) or 0.06 × 10^6 cells for 24‐well plates (OATs) were seeded onto cell‐culture treated well plates coated with poly‐D‐lysine. […]
In the OATP inhibition assays, inhibitors in warm TP‐buffer were directly applied to cells after media removal, followed by a 30‐min preincubation step in the presence of inhibitors. […] OAT1 and OAT3 cells were lysed with 200 μL of 1 M sodium hydroxide for 10 min, and 150 μL of these samples were transferred to a black well plate for fluorescein quantification. […]
For the inhibition data analysis, the average of measured concentrations in the control cells was subtracted from the average of measured concentrations in transporter‐expressing cells for each inhibitor concentration and then normalized to the vehicle sample that represents 100% transport activity. […]

OATP2B1 = biological target: T2, OATP2B1 (Homo sapiens, UniProt O94956); experiment: Uptake transport assay in OATP2B1-expressing HEK293 cells; format: cell-based; details: for transport by OATP2B1: 2 and 50 μM, 10 min; for Vmax (pmol/106 cells/min) OATP2B1: uptake, 2 min
T2 construct: expressed in transfected cells; host or cells: HEK293 (recombinant baculovirus-mediated transduction)
T2 sequence (O94956 1-709): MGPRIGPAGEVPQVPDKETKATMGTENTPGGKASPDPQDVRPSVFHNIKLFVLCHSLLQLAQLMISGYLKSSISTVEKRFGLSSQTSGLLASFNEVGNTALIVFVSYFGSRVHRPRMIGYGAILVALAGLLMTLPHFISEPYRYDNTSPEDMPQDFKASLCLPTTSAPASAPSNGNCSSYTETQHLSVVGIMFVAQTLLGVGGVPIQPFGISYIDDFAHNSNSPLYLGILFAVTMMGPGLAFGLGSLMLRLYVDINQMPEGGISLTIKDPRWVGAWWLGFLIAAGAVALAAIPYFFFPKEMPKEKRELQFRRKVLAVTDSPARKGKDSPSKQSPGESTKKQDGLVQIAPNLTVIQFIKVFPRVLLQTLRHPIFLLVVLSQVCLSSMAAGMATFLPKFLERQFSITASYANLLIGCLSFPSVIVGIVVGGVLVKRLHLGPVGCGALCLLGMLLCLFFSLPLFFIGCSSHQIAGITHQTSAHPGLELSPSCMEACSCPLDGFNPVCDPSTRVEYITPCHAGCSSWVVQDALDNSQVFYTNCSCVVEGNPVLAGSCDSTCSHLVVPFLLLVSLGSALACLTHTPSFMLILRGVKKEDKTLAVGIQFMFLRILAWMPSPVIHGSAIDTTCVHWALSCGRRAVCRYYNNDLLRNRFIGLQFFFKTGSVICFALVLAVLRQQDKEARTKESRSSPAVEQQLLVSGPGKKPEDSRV
Procedure: The human transporters OATP1B1, OATP1B3, OATP2B1, and OAT1‐OAT4 and a negative control protein (enhanced yellow fluorescent protein, eYFP) were transiently expressed in human embryonic kidney 293 (HEK293) cells by recombinant baculovirus‐mediated transduction. Baculoviruses carrying human genes for the transporters were prepared as reported previously. HEK293 cells were cultured in DMEM containing 10% fetal bovine serum at 37°C and 5% CO2 and passaged two to three times per week. For the transport studies, 0.05 × 10^6 cells for 48‐well plates (OATPs) or 0.06 × 10^6 cells for 24‐well plates (OATs) were seeded onto cell‐culture treated well plates coated with poly‐D‐lysine. After 1 day, cells were transduced to produce recombinant proteins by changing media to DMEM containing 30 μL (48‐well plates) or 60 μL (24‐well plates) of recombinant baculovirus and 3 mM (OATs) or 5 mM (OATPs) sodium butyrate in a total media volume of 500 μL. The cells were cultured for a further 2 days before the transport assays.
For the transport studies, media were removed and cells were washed once with warm transport uptake buffer (TP‐buffer—pH 7.4 HBSS with 25 mM HEPES and 4 mM sodium bicarbonate). Each experiment included triplicate (OATP) or duplicate (OAT) samples for every test condition. The uptake was started by removing liquid from wells and applying warm TP‐buffer (200 μL for 24‐well plates or 125 μL for 48‐well plates) containing a test compound to cells. Transport assays were terminated after a pre‐specified incubation time (reported in figure legends) by removing substrate solution and washing cells three times with cold TP‐buffer (300 μL for 48‐well plates and 400 μL for 24‐well plates). For the liquid chromatography mass spectrometry (LC–MS) analysis, compounds were extracted from cells with 125 μL (48‐well plates) or 250 μL (24‐well plates) of an ultrapure‐water solution containing 75% methanol and 0.1% formic acid, shaking at 250 RPM for 30 min. […] Samples were transferred to well plates, centrifuged at 3000 g for 30 min, and transferred to a new well plate for the analysis.
Equation (2) (the Michaelis–Menten equation) was fit to the transport kinetic assay data. […] (2) Uptake=Vmax×S/Km+S

Row | SMILES | inhibition of OAT2-mediated transport of methotrexate (OAT2) | transport by OATP2B1 (OATP2B1) | Vmax (pmol/106 cells/min) OATP2B1 (OATP2B1) [pmol/106 cells/min]
1 | Cc1onc(-c2c(Cl)cccc2Cl)c1C(=O)N[C@@H]1C(=O)N2[C@@H]1SC(C)(C)[C@@H]2C(=O)O [Dicloxacillin] | neither compound substantially inhibited | transported | 61.5
2 | Cc1onc(-c2c(F)cccc2Cl)c1C(=O)N[C@@H]1C(=O)N2[C@@H]1SC(C)(C)[C@@H]2C(=O)O [Flucloxacillin] | neither compound substantially inhibited | transported | 74.9
